# Data taken from US20110306606A1, “NOVEL 2,6-SUBSTITUTED-3-NITROPYRIDINE DERIVATIVE, METHOD FOR PREPARING SAME, AND PHARMACEUTICAL COMPOSITION INCLUDING SAME” (priority 2008, published 2011).
# Where two headings read alike, the source gives them in different places.
# How the values were obtained:
# [1] = system: formation of osteoclasts in co-culture of bone marrow cells and osteoblasts; assay: Osteoclastogenesis inhibition via co-culture system (TRAP staining); type: cell-based, mice; conditions: 1 μM compound, 7 days co-culture, TRAP-positive multinucleated osteoclasts vs vehicle control
# Experimental: Osteoclastogenesis inhibitory effects of the compounds of the present invention were evaluated via a co-culture system (Reference: Endocrinology 137(1996), 2187 to 2190, E. Jimi et al.). A specific experimental method is as follows.
# 1) Preparation of Bone Marrow Cells and Osteoblasts
# Femora and tibia were aseptically dissected from 6 to 8-week-old male ddY mice to harvest bone marrow cells by a conventional method using a syringe. In brief, tissues were removed from the dissected bone, the bone ends were cut off with scissors, and the bone marrow was isolated by pushing a medium-containing syringe (23G) against the one end of the cut bone. The isolated bone marrow was subjected to repeated piston movement of a syringe such that single cells were obtained (Reference: Endocrinology 123(1988), 2600 to 2602, Takahashi et al.). After removal of red blood cells within the bone marrow, the bone marrow cells recovered by centrifugation were placed in an α-MEM supplemented with 10% fetal bovine serum (FBS), followed by counting of nucleated cells and then were immediately used for a co-culture system.
# 2) Osteoclastogenesis Inhibition Experiment Via Co-Culture System
# As the medium used for a co-culture system, a differentiation medium with the addition of differentiation factors 1α,25-dihydroxyvitamin D3 (10^−8M) and dexamethasone (10^−8M) to a-MEM supplemented with 10% FBS was used for the induction of osteoclastogenesis. First, the compounds dissolved in dimethyl sulfoxide (DMSO) at a concentration of 1 mM were diluted to 2 μM using the above-mentioned differentiation medium. As a vehicle control group, 0.2% (v/v) DMSO was added to the medium. 100 μL/well of each medium was added to 96-well plates. In addition, the above prepared bone marrow cells and osteoblasts were plated onto 96-well plates at a density of 1×10^5 cells/50 μL/well and 3×10^3 cells/50 μL/well, respectively. The total volume/well was 200 μL and the final compound concentration was 1 μM. The control group was 0.1% DMSO. The cells were cultured with exchange of the culture media with fresh media containing differentiation factors and test materials at an interval of 2 to 3 days.
# 7 days after culturing of cells, the formation of multinucleated osteoclasts was confirmed by microscopic examination, the medium was removed from the wells and then the cells were fixed in a 10% phosphate-buffered formalin solution. The degree of formation of mature osteoclasts was measured taking advantage of the characteristics of osteoclasts showing a positive reaction to a tartrate-resistant acid phosphatase (TRAP) staining solution. The TRAP staining solution was prepared in a manner such that naphthol AS-MS phosphate as a substrate and a coloring agent (Fast Red Violet LB salt) were dissolved in N,N-dimethylformamide, and a 0.1N NaHCO3 buffer solution containing 50 mM of tartaric acid was added thereto. Among the TRAP-positive cells under a light microscope, multinucleated osteoclasts having 6 to 7 nuclei were regarded as mature osteoclasts.
# The degree of inhibition of osteoclastogenesis was calculated according to the following equation 1. The results are summarized in Table 27 below (Experiments were carried out for 4 wells/experimental group (n=4), and the results are given in terms of mean±standard deviation)
# Inhibition of osteoclastogenesis(%)=(1−numbers of osteoclasts observed in experimental group/numbers of osteoclasts observed in vehicle control group)×100(%) [Equation 1]
# [2] = system: Osteoblasts (Calvarial cells); assay: Cytotoxicity test (MTT); conditions: 1 μM compound, 72 hours, in comparison with vehicle control
# [3] = system: Osteoblasts (Calvarial cells); assay: Alkaline phosphatase (ALP) activity in osteoblasts (Calvarial cells); type: cell-based, mice; conditions: Mus musculus, 72 h; 1 μM compound, 3 days, Calvarial cell; read-out: ALP activity (1 μM, % of Control) Calvarial cell
# Experimental: Differentiation and activity of osteoblasts were indirectly evaluated by measuring an ALP activity having a close relationship with osteogenesis.
# Osteoblasts (Calvarial cells) prepared in Experimental Example 1 and MC3T3-E1 cells (available from RIKEN Cell Bank, Japan) were collected in α-MEM supplemented with 10% FBS, followed by cell counting. The cells were dispensed into 24-well cultureware at a density of 2×10^4 cells/well. After culturing of the cells for 24 hours, the culture media were discarded and replaced with fresh media in which test compounds were diluted to a concentration of 1 μM (1 mL/well). In addition, the vehicle control group containing 0.1% DMSO was also treated. […] When the experiment was terminated, the supernatant was removed and the cells were washed three times with cold phosphate buffer at 4°. 0.2% Triton X-100 was added to the washed cells which were then subjected to three cycles of freezing at −70° and thawing at room temperature for the complete lysis of cells. The cell extracts were pooled and centrifuged to collect the cell supernatant which was used for the measurement of ALP activity and proteins. The protein concentration was measured using a BCA assay kit (manufactured by Sigma-Aldrich). For the measurement of ALP activity, p-nitrophenylphosphate was added to the cell supernatant which was then incubated at 37° for 30 minutes, and the reaction was terminated with the addition of 50 μL of 0.2N sodium hydroxide. The standard curve was plotted at the absorbance of 405 nm using p-nitrophenol as a standard material and then the absorbance of test materials thus reacted was measured to determine the production amount of p-nitrophenol.
# The ALP activity was calculated by dividing the amount of p-nitrophenol produced from each test material by the protein amount and the reaction time. Therefore, the unit of ALP activity was given in terms of p-nitrophenol/μg protein/min. The results are given in Tables 28-1 and 28-2 where the ALP activity unit of each test material was given in terms of % change through the comparison between the individual test materials and the vehicle control group.
# [4] = system: Osteoblasts (Calvarial cells); conditions: ICR, mouse, 72 h, 1 μM
SMILES,Osteoclastogenesis inhibition (%) 1 μM [1] [%],Cell viability (%) Calvarial cell [2] [%],activity at 1 µM [3] [%],Cell viability (%) Calvarial cell [4] [%]
"O=[N+]([O-])c1ccc(N2CCNCC2)nc1Nc1ccc(N2CCCCC2)c(F)c1 [Compound 233, 2-[(3-fluoro-4-piperidino)phenylamino]-6-(piperazin-1-yl)-3-nitropyridine]",96,102,–,–
"O=[N+]([O-])c1ccc(N2CCC(O)CC2)nc1Nc1ccc(N2CCCCC2)c(F)c1 [Compound 226, 2-[(3-fluoro-4-piperidino)phenylamino]-6-(4-hydroxypiperidino)-3-nitropyridine]",66,104,–,–
"O=[N+]([O-])c1ccc(NCc2cccnc2)nc1Nc1ccc(N2CCSCC2)c(F)c1 [Compound 209, 2-[(3-fluoro-4-thiomorpholino)phenylamino]-6-[(3-pyridyl)methylamino]-3-nitropyridine]",85,99,–,–
"CC(=O)c1cccc(Nc2nc(NC(C)(C)C)ccc2[N+](=O)[O-])c1 [Compound 104, 2-(3-acetylphenylamino)-6-(t-butylamino)-3-nitropyridine]",–,–,112,97
"CC(C)(C)Nc1ccc([N+](=O)[O-])c(Nc2ccc(N)cc2)n1 [Compound 60, 2-[4-(amino)phenylamino]-6-(t-butylamino)-3-nitropyridine]",–,–,131,119
"Cc1nc(-c2ccc(Nc3nc(-n4ccnc4C(C)C)ccc3[N+](=O)[O-])cc2)cs1 [Compound 137, 2-[4-(2-methylthiazol-4-yl)phenylamino]-6-[(2-isopropyl)imidazol-1-yl]-3-nitropyridine]",–,–,122,92
"CNc1ccc([N+](=O)[O-])c(Nc2ccc(N)cc2)n1 [Compound 57, 2-[4-(amino)phenylamino]-6-(methylamino)-3-nitropyridine]",–,–,112,103
"CC(=O)c1cccc(Nc2nc(N3CCC(O)CC3)ccc2[N+](=O)[O-])c1 [Compound 99, 2-(3-acetylphenylamino)-6-(4-hydroxypiperidino)-3-nitropyridine]",–,–,189,104
"CC(=O)c1cccc(Nc2nc(N3CCN(C)CC3)ccc2[N+](=O)[O-])c1 [Compound 105, 2-(3-acetylphenylamino)-6-(4-methylpiperazin-1-yl)-3-nitropyridine]",–,–,121,90
"Cc1ccc(Nc2nc(N3CCOCC3)ccc2[N+](=O)[O-])cc1 [Compound 14, 2-(4-methylphenylamino)-6-morpholino-3-nitropyridine]",–,–,135,99
"Cc1nc(-c2ccc(Nc3nc(NC(C)(C)C)ccc3[N+](=O)[O-])cc2)cs1 [Compound 140, 2-[4-(2-methylthiazol-4-yl)phenylamino]-6-(t-butylamino)-3-nitropyridine]",–,–,118,102
"Nc1cccc(Nc2nc(NCc3cccnc3)ccc2[N+](=O)[O-])c1 [Compound 80, 2-[3-(amino)phenylamino]-6-[(3-pyridyl)methylamino]-3-nitropyridine]",–,–,116,102
"CC(=O)c1cccc(Nc2nc(N3CCOCC3)ccc2[N+](=O)[O-])c1 [Compound 107, 2-(3-acetylphenylamino)-6-morpholino-3-nitropyridine]",–,–,121,97
"Nc1cccc(Nc2nc(N3CCC(N)CC3)ccc2[N+](=O)[O-])c1 [Compound 79, 2-[3-(amino)phenylamino]-6-(4-aminopiperidino)-3-nitropyridine]",–,–,133,99
"O=[N+]([O-])c1ccc(N2CCC(O)CC2)nc1Nc1ccc(-n2ccnc2)cc1 [Compound 90, 2-[4-(imidazol-1-yl)phenylamino]-6-(4-hydroxypiperidino)-3-nitropyridine]",–,–,161,106
"CNc1ccc([N+](=O)[O-])c(Nc2ccc(-n3ccnc3)cc2)n1 [Compound 86, 2-[4-(imidazol-1-yl)phenylamino]-6-(methylamino)-3-nitropyridine]",–,–,144,111
"CC(C)Nc1ccc([N+](=O)[O-])c(Nc2ccc(N)cc2)n1 [Compound 58, 2-[4-(amino)phenylamino]-6-(isopropylamino)-3-nitropyridine]",–,–,127,107
"NC1CCN(c2ccc([N+](=O)[O-])c(Nc3ccc(-c4csc(C5CCCCC5)n4)cc3)n2)CC1 [Compound 161, 2-[4-(2-cyclohexylthiazol-4-yl)phenylamino]-6-(4-aminopiperidino)-3-nitropyridine]",–,–,121,98
"Cc1nc(-c2ccc(Nc3nc(NC(C)C)ccc3[N+](=O)[O-])cc2)cs1 [Compound 133, 2-[4-(2-methylthiazol-4-yl)phenylamino]-6-(isopropylamino)-3-nitropyridine]",–,–,122,102
"Nc1cccc(Nc2nc(NCc3ccncc3)ccc2[N+](=O)[O-])c1 [Compound 81, 2-[3-(amino)phenylamino]-6-[(4-pyridyl)methylamino]-3-nitropyridine]",–,–,123,100
"CC(C)Nc1ccc([N+](=O)[O-])c(Nc2ccc(-n3ccnc3)cc2)n1 [Compound 87, 2-[4-(imidazol-1-yl)phenylamino]-6-(isopropylamino)-3-nitropyridine]",–,–,116,101
"CC(C)Nc1ccc([N+](=O)[O-])c(Nc2ccc(C(C)(C)C)cc2)n1 [Compound 31, 2-[4-(t-butyl)phenylamino]-6-(isopropylamino)-3-nitropyridine]",–,–,134,108
